Our source for the Ratio values is ChEMBL document CHEMBL1134103.

For this experiment, the target named is Peptidyl-prolyl cis-trans isomerase A (Homo sapiens) (UniProt P62937). Put plainly: Permeation ratio of cell-free CyP binding to intracellular CyP binding. The experiment is classed as cell-based.
Chain of Peptidyl-prolyl cis-trans isomerase A (Homo sapiens) (P62937 whole entry, looked up): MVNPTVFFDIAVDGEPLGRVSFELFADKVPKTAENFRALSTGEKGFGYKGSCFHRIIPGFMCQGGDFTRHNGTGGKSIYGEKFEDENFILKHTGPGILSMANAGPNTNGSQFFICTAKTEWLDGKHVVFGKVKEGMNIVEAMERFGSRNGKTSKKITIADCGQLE
Turning to `CC[C@H]1C[C@H](C)[C@@]2(NC1=O)O[C@@H](C[C@H](O)[C@@H](C)CCCCCC(C)[C@@H]1CCCCC[C@H](O)[C@H](C)[C@@H](O)[C@@H](CCC(C)=O)C(=O)N[C@@H](C(C)C)C(=O)N[C@@H](Cc3cccc(O)c3)C(=O)N3CCC[C@H](N3)C(=O)O1)[C@H](C)[C@H](O)[C@@H]2C` (stereo partly drawn), the Ratio turned out to be 65. Turning to `CCCC[C@H]1C(=O)N[C@@H](C(C)C)C(=O)N[C@@H](Cc2cccc(O)c2)C(=O)N2CCC[C@H](N2)C(=O)O[C@H](/C(C)=C/C=C/CC[C@H](C)[C@@H](O)C[C@@H]2O[C@@]3(NC(=O)[C@@H](CC)C[C@@H]3C)[C@@H](C)[C@@H](O)[C@H]2C)C/C=C/C=C/[C@H](O)[C@H](C)[C@H]1O`, the Ratio amounted to 0.8. As to `CC[C@H]1C[C@H](C)[C@@]2(NC1=O)O[C@@H](C[C@H](O)[C@@H](C)CCCCCC(C)[C@@H]1CCCCC[C@H](O)[C@H](C)[C@@H](O)[C@@H](CCC(C)=O)C(=O)N[C@@H](C(C)C)C(=O)N[C@@H](Cc3ccccc3)C(=O)N3CCC[C@H](N3)C(=O)O1)[C@H](C)[C@H](O)[C@@H]2C` (stereo partly drawn), the Ratio is 270.
